Measured values from ChEMBL document CHEMBL4715885, “Novel dual LSD1/HDAC6 inhibitors for the treatment of multiple myeloma” (Bioorg Med Chem Lett, 2021).
Converted amounts (≈) assume the structure as drawn. The source made the active and inactive calls. The calls are words filed in the database; no cut-off is given here.

Assays:
[1] = molecular target: T1, Protein deacetylase HDAC6 (Homo sapiens, UniProt Q9UBN7); assay: Inhibition of human HDAC6 (unknown origin) using RHKKAc as substrate by fluorescence method
T1 sequence (Q9UBN7 whole entry): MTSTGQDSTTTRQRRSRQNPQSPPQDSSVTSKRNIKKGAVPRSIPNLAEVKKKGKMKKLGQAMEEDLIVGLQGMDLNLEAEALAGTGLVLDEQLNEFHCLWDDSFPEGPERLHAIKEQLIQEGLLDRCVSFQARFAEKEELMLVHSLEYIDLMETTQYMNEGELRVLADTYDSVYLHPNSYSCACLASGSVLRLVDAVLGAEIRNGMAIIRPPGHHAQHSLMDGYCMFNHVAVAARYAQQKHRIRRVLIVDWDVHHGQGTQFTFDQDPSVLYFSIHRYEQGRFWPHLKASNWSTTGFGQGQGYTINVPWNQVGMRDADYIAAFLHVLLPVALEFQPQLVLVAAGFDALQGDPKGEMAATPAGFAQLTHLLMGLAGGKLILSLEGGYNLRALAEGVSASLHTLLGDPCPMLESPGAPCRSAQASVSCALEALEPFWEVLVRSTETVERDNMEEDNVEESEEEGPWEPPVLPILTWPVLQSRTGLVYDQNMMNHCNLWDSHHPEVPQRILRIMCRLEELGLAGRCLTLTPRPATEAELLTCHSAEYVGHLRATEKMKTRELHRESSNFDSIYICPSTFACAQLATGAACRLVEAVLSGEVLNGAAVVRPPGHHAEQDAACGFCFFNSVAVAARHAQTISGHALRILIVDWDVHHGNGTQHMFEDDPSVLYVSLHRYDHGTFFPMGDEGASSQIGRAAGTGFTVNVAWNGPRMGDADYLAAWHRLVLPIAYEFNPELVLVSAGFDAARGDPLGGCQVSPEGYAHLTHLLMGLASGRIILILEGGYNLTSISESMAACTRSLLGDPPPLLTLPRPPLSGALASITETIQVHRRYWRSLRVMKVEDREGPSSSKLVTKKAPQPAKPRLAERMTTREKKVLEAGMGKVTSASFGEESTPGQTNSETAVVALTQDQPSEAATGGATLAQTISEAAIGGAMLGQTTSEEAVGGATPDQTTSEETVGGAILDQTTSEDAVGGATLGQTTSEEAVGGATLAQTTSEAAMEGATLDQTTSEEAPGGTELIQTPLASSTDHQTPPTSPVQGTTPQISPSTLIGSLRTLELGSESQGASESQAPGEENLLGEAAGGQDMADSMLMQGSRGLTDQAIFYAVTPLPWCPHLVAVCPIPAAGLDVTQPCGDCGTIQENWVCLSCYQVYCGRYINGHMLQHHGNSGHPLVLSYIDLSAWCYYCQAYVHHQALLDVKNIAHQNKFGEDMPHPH

[2] = molecular target: Histone deacetylase 1 (Homo sapiens) (UniProt Q13547); assay: Inhibition of human HDAC1 at 1uM using RHKKAc as substrate by fluorescence method relative to control
Chain of Histone deacetylase 1 (Homo sapiens) (Q13547 whole entry): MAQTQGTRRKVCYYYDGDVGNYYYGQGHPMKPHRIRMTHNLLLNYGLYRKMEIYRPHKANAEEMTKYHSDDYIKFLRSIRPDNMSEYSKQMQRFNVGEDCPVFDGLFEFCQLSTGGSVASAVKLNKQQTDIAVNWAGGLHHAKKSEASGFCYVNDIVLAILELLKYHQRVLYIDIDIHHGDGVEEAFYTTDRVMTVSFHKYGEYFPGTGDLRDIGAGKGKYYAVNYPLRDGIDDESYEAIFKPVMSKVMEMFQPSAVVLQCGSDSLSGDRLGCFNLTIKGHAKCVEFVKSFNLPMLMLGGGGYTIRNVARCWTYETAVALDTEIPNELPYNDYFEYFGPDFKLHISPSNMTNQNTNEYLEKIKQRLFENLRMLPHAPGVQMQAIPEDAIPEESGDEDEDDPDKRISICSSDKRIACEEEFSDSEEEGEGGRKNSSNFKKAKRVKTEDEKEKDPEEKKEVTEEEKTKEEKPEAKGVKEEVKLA

MM1.S [3] = assay: Antiproliferative activity against human MM1.S cells assessed as reduction in cell viability after 144 hrs; assay type: functional, cell-based
MM1.S [4] = assay: Antiproliferative activity against human MM1.S cells assessed as reduction in cell viability at 10 uM after 144 hrs relative to control; assay type: functional
[5] = Stability in human liver microsomes assessed as parent compound remaining measured after 30 mins; assay type: ADME, Microsome; settings: microsomes, 0.5 h
[6] = Stability in mouse liver microsomes assessed as parent compound remaining measured after 30 mins; assay type: ADME, Microsome; settings: microsomes, 0.5 h
[7] = Inhibition of HDAC phosphorylation (unknown origin); set-up: species or system Homo sapiens
[8] = molecular target: T2, Polyamine deacetylase HDAC10 (Homo sapiens, UniProt Q969S8); assay: Inhibition of HDAC10 (unknown origin)
T2 sequence (Q969S8 whole entry): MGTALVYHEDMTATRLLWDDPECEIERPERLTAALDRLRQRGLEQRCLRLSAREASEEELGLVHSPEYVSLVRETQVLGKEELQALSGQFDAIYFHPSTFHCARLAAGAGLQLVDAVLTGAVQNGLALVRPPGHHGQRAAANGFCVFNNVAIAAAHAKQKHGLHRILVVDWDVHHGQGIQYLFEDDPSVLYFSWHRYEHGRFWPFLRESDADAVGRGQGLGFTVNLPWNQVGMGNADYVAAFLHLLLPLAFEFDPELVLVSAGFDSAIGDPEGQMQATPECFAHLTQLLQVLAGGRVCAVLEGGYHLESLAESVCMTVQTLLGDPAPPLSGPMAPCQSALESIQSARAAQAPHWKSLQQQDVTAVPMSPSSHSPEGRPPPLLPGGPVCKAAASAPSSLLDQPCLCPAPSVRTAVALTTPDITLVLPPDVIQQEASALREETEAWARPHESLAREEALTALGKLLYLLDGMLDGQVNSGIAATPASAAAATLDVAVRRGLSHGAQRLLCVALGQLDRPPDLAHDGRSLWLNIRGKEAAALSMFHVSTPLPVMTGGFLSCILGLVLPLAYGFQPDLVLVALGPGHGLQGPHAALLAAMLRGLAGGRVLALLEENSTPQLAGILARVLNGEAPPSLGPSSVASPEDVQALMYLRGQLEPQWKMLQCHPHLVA

[9] = Antiproliferative activity against human MM1.R cells assessed as reduction in cell viability after 144 hrs; assay type: functional, cell-based; settings: MM.1R
RPMI-8226 = assay: Antiproliferative activity against human RPMI-8226 cells assessed as reduction in cell viability after 144 hrs; assay type: functional, cell-based; settings: RPMI-8226, 144 h
MM1.S [10] = assay: Antitumour activity against human MM1.S cells xenografted in SCID mouse assessed as tumour growth inhibition at 25 mg/kg, po for 12 days relative to control; assay type: functional; settings: 288 h, time 12 day, read-out: TGI
[11] = Toxicity in SCID mouse xenografted with human MM1.S cells assessed as induction of body weight loss at 50 mg/kg, po dosed daily for 12 days; assay type: organism-based; settings: in vivo, 288 h, time 12 day
[12] = Drug concentration in tumour of mouse xenografted with human MM1.S cells at 50 mg/kg, po dosed daily for 12 days; assay type: ADME, organism-based, Neoplasm; settings: time 12 day, read-out: Drug uptake
[13] = Drug concentration in plasma of mouse xenografted with human MM1.S cells at 50 mg/kg, po dosed daily for 12 days; assay type: ADME, organism-based; settings: time 12 day
[14] = Half life in Balb/c mouse at 10 mg/kg, iv; assay type: ADME, organism-based; settings: in vivo
[15] = Half life in Balb/c mouse at 50 mg/kg, po; assay type: ADME, organism-based; settings: in vivo
[16] = Cmax in Balb/c mouse at 10 mg/kg, iv; assay type: ADME, organism-based; set-up: route intravenous, dose 10 mg/kg; settings: in vivo
[17] = Cmax in Balb/c mouse at 50 mg/kg, po; assay type: ADME, organism-based; set-up: route oral, dose 50 mg/kg; settings: in vivo
[18] = Initial plasma concentration in Balb/c mouse at 50 mg/kg, po; assay type: ADME, organism-based; settings: in vivo
[19] = AUC (0 to t) in Balb/c mouse at 10 mg/kg, iv; assay type: ADME, organism-based; set-up: dose 10 mg/kg; settings: in vivo
[20] = Clearance in Balb/c mouse at 50 mg/kg, po; assay type: ADME, organism-based; settings: in vivo
[21] = Volume of distribution in Balb/c mouse at 50 mg/kg, po; assay type: ADME, organism-based; settings: in vivo
[22] = Oral bioavailability in Balb/c mouse at 50 mg/kg; assay type: ADME, organism-based; settings: in vivo
[23] = molecular target: T3, Amine oxidase [flavin-containing] A (Homo sapiens, UniProt P21397); assay: Inhibition of MAO-A (unknown origin)
T3 sequence (P21397 whole entry): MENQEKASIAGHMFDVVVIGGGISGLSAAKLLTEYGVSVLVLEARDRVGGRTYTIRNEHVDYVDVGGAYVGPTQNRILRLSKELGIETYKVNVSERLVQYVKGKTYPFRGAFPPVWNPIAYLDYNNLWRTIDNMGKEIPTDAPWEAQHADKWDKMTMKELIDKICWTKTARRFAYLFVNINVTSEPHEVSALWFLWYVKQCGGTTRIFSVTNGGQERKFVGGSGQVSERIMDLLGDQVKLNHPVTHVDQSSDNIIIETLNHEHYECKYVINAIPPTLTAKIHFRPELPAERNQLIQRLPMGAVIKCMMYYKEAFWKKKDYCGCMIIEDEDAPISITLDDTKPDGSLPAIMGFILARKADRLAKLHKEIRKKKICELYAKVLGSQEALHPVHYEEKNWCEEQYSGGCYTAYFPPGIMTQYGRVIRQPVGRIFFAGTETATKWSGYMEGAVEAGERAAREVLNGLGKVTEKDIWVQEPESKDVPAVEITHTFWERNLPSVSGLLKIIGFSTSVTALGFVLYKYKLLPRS

[24] = molecular target: T4, Amine oxidase [flavin-containing] B (Homo sapiens, UniProt P27338); assay: Inhibition of MAO-B (unknown origin)
T4 sequence (P27338 whole entry): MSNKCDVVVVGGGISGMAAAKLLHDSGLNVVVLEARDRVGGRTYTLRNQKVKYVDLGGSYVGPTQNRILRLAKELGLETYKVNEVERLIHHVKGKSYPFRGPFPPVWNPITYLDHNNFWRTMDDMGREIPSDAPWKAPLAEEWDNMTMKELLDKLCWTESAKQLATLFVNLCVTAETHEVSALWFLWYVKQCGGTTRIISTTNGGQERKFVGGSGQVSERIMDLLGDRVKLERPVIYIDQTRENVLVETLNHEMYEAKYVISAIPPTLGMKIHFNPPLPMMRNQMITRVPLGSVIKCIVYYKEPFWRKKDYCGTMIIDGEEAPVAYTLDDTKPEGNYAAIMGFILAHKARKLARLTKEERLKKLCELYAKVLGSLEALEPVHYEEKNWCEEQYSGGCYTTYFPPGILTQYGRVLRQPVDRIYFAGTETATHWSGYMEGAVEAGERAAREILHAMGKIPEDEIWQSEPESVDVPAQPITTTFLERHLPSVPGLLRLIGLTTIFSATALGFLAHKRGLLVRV

[25] = molecular target: Voltage-gated inwardly rectifying potassium channel KCNH2 (Homo sapiens, UniProt Q12809); assay: Inhibition of human ERG
Chain of Voltage-gated inwardly rectifying potassium channel KCNH2 (Q12809 whole entry): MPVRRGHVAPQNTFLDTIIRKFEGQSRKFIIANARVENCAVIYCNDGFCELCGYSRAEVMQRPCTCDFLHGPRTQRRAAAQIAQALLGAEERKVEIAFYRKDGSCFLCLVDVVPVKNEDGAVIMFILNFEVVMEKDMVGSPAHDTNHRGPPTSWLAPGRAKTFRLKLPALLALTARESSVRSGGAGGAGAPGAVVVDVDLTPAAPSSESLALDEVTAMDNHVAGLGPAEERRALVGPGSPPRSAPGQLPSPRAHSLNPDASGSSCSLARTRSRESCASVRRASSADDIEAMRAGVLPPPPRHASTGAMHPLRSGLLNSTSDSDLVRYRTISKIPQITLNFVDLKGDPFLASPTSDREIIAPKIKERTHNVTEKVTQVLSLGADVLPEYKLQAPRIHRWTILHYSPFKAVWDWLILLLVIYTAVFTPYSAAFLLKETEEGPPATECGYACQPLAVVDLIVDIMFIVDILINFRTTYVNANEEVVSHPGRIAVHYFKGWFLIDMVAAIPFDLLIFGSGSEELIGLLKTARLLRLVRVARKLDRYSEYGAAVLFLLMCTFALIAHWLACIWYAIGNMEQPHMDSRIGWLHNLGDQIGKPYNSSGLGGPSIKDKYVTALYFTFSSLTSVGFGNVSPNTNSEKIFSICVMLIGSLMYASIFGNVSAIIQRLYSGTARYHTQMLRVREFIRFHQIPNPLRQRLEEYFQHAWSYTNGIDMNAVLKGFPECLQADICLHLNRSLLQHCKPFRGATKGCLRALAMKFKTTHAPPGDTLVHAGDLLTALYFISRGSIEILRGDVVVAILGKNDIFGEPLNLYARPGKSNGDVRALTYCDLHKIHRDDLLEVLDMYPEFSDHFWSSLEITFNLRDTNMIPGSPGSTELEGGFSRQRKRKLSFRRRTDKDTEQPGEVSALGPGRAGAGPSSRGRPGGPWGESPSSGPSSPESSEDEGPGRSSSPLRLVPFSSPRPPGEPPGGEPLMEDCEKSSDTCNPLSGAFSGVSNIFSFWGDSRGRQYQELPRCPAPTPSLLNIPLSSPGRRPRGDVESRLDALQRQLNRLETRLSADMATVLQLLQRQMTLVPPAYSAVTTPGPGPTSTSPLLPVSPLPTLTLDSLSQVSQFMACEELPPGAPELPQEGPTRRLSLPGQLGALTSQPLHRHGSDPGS

[26] = Solubility of compound; assay type: physicochemical
[27] = Permeability from apical to basolateral side in human Caco2 cells; assay type: ADME, cell-based; settings: Caco-2, read-out: permeability
[28] = Permeability from basolateral to apical side in human Caco2 cells; assay type: ADME, cell-based; settings: Caco-2, read-out: permeability
[29] = Protein binding in plasma (unknown origin) assessed as unbound fraction; assay type: ADME, cell-free
CYP3A4 = CYP3A4 (Homo sapiens, UniProt P08684); assay: Inhibition of CYP3A4 (unknown origin) at 10 uM relative to control; assay type: ADME
Chain of CYP3A4 (P08684 whole entry): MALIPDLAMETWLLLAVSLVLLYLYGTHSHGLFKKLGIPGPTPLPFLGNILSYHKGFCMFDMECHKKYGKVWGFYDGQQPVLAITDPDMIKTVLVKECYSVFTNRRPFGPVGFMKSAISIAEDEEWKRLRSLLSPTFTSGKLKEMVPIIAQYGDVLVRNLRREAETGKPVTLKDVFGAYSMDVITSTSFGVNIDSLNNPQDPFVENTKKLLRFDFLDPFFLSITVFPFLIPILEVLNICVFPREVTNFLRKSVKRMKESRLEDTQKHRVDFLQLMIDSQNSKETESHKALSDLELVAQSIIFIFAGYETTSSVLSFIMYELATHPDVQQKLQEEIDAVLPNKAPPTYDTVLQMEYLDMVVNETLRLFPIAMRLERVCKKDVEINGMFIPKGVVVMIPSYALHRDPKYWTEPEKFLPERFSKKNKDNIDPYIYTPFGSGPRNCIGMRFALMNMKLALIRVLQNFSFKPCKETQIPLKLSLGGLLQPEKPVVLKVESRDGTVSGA

CYP2D6 = CYP2D6 (Homo sapiens, UniProt P10635); assay: Inhibition of CYP2D6 (unknown origin) at 10 uM relative to control; assay type: ADME
Chain of CYP2D6 (P10635 whole entry): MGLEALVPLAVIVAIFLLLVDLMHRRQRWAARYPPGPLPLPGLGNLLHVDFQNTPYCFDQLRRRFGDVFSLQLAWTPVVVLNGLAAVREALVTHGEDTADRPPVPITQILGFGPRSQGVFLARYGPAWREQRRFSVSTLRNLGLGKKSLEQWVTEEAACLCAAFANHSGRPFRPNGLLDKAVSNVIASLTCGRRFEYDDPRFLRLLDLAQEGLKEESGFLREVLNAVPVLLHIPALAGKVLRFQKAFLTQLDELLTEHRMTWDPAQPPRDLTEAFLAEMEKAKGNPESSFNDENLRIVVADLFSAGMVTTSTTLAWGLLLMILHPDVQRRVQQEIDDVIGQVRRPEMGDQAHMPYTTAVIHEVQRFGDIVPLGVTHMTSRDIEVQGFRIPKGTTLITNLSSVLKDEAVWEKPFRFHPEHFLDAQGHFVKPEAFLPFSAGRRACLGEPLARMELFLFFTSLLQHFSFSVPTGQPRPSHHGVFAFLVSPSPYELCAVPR

## Cl.Cl.NC1CCC(N[C@@H]2C[C@H]2c2ccccc2)CC1 (some centres not stated)
[1]
  IC50: Not Active
[2]
  inhibition: inactive
MM1.S [3]
  EC50: > 10 µM
MM1.S [4]
  Activity: 30%

## O=C(NO)c1ccc(CCCN2CCC(CN[C@H]3C[C@@H]3c3ccccc3)CC2)cc1 (racemic)
[5]
  Stabilty: 40%
[6]
  Stabilty: 56%
[7]
  IC50: 1.78 µM
[8]
  IC50: > 10 µM
[9]
  EC50: 0.006 µM
RPMI-8226
  EC50: 0.28 µM
MM1.S [10]
  inhibition in vivo at 25 mg/kg: 67%
[11]
  Activity: Non-Toxic
[12]
  concentration at 288 h: 216 ng/mL
[13]
  concentration at 288 h: 52 ng/mL
[14]
  half-life: 3.3 h
[15]
  half-life: 2.5 h
[16]
  Cmax: 821 ng/mL
[17]
  Cmax: 904 ng/mL
[18]
  C0: 1406 ng/mL
[19]
  AUC(0-t): 1520 ng·h/mL
[20]
  CL/F: 233 mL/min/kg
[21]
  Vd: 66 L/kg
[22]
  bioavailability: 44%
[23]
  IC50: 8.6 µM
[24]
  IC50: 6.6 µM
[25]
  IC50: 5.6 µM
[26]
  solubility: 110 µM (≈ 44.8 µg/mL)
[27]
  Papp A→B: 2.67 ×10⁻⁶ cm/s
[28]
  Papp B→A: 9.6 ×10⁻⁶ cm/s
[29]
  fraction unbound: 0.45
CYP3A4
  inhibition at 10 µM: 11%
CYP2D6
  inhibition at 10 µM: 54%
